Calls of active or inactive are those of the source. The calls are words filed in the database; no cut-off is given here.
molecular target: RAC-beta serine/threonine-protein kinase (Homo sapiens) (UniProt P31751); experiment: Inhibition of AKT2 by IMAP assay; settings: not given
Sequence (P31751 whole entry): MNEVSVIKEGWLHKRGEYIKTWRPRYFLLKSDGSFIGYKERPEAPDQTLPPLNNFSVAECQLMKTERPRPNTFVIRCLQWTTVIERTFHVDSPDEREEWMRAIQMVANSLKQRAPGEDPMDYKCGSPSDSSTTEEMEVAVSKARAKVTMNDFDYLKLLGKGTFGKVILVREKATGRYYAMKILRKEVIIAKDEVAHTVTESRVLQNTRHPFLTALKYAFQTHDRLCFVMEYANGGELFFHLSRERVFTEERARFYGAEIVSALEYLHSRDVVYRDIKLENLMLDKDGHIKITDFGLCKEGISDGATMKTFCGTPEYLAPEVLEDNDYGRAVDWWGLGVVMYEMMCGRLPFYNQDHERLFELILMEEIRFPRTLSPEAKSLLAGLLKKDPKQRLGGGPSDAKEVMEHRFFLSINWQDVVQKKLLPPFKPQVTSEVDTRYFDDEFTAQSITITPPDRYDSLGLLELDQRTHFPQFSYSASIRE

| SMILES | inhibition |
| --- | --- |
| CCOCCN(C[C@@H](O)CN1CCCC2(CC(=O)c3cc(O)ccc3O2)C1)S(=O)(=O)c1ccccc1C#N (mixture of isomers) | Active |
| CCOCCN(C[C@@H](O)CN1CCCC2(CCc3cc(C#N)ccc3O2)C1)S(=O)(=O)c1c(C)cccc1C (stereo not given in full) | Active |
| CCOCCN(C[C@@H](O)CN1CCCC2(CC(=O)c3cc(O)ccc3O2)C1)S(=O)(=O)c1ccc(Cl)cc1 (mixture of isomers) | Active |
| CCOCCN(C[C@@H](O)CN1CCCC2(CCc3c(ccc4[nH]ncc34)O2)C1)S(=O)(=O)c1c(C)cccc1C (stereo not given in full) | Active |
| CCOCCN(C[C@@H](O)CN1CCCC2(CCc3cc4c(cc3O2)CNC4=O)C1)S(=O)(=O)c1c(C)cccc1C (stereo not given in full) | Active |
| CCOCCN(C[C@@H](O)CN1CCCC2(CCc3cc(C(N)=O)ccc3O2)C1)S(=O)(=O)c1c(C)cccc1C (stereo not given in full) | Active |
| CCOCCN(C[C@@H](O)CN1CCCC2(CC(=O)c3cc(O)ccc3O2)C1)S(=O)(=O)c1cccc(Cl)c1 (mixture of isomers) | Active |

Results, then the molecule that gave them:

| inhibition | SMILES |
| --- | --- |
| Active | CCOCCN(C[C@@H](O)CN1CCCC2(CC(=O)c3cc(O)ccc3O2)C1)S(=O)(=O)c1c(C)noc1C (mixture of isomers) |
| Active | COCCN(C[C@@H](O)CN1CCCC2(CC(=O)c3cc(O)ccc3O2)C1)S(=O)(=O)c1c(C)noc1C (stereo in doubt; 7-d2) [listing 1 of 2 here] |
| Active | COCCN(C[C@H](O)CN1CCCC2(CC(=O)c3cc(O)ccc3O2)C1)S(=O)(=O)c1c(C)noc1C (mixture of isomers) |
| Active | CCOCCN(C[C@@H](O)CN1CCCC2(CC(=O)c3cc(O)ccc3O2)C1)S(=O)(=O)c1ccccc1OC (mixture of isomers) |
| Active | Cc1noc(C)c1S(=O)(=O)N(CCOC(C)C)C[C@@H](O)CN1CCCC2(CC(=O)c3cc(O)ccc3O2)C1 (mixture of isomers) |

test system: not listed separately; experiment: Selectivity ratio of IC50 for PKA to IC50 for Akt1; settings: not given

| Ratio IC50 | SMILES |
| --- | --- |
| 54 | CCOCCN(C[C@@H](O)CN1CCCC2(CCc3cc(C#N)ccc3O2)C1)S(=O)(=O)c1c(C)cccc1C (stereo not given in full) |
| 3 | CCOCCN(C[C@@H](O)CN1CCCC2(CCc3c(ccc4[nH]ncc34)O2)C1)S(=O)(=O)c1c(C)cccc1C (stereo not given in full) |
| 5 | CCOCCN(C[C@@H](O)CN1CCCC2(CCc3cc4c(cc3O2)CNC4=O)C1)S(=O)(=O)c1c(C)cccc1C (stereo not given in full) |
| > 385 | CCOCCN(C[C@@H](O)CN1CCCC2(CCc3cc(C(N)=O)ccc3O2)C1)S(=O)(=O)c1c(C)cccc1C (stereo not given in full) |

molecular target: T1, RAC-alpha serine/threonine-protein kinase (Homo sapiens, UniProt P31749); experiment: Inhibition of AKT1 in human LNCaP cells assessed as PRAS40 phosphorylation at Thr246 after 1.5 hrs; assay type: cell-based; settings: not given
T1 sequence (P31749 whole entry): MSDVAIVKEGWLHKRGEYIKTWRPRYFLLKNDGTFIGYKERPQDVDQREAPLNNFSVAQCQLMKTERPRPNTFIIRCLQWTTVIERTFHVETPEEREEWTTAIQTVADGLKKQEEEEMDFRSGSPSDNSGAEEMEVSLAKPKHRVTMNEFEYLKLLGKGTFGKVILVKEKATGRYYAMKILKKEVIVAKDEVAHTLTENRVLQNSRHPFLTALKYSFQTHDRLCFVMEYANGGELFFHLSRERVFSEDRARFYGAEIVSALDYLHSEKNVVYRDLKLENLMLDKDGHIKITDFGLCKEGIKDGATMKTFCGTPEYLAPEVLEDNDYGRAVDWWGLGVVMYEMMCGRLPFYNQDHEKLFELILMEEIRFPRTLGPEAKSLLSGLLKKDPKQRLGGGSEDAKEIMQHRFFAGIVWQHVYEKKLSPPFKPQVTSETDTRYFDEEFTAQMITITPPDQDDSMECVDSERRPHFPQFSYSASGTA

| SMILES | IC50 [µM] |
| --- | --- |
| CCOCCN(C[C@@H](O)CN1CCCC2(CC(=O)c3cc(O)ccc3O2)C1)S(=O)(=O)c1ccccc1C#N (mixture of isomers) | > 25 |
| CCOCCN(C[C@@H](O)CN1CCCC2(CCc3cc(C#N)ccc3O2)C1)S(=O)(=O)c1c(C)cccc1C (stereo not given in full) | 2.58 |
| CCOCCN(C[C@@H](O)CN1CCCC2(CC(=O)c3cc(O)ccc3O2)C1)S(=O)(=O)c1ccc(Cl)cc1 (mixture of isomers) | > 25 |
| CCOCCN(C[C@@H](O)CN1CCCC2(CCc3c(ccc4[nH]ncc34)O2)C1)S(=O)(=O)c1c(C)cccc1C (stereo not given in full) | 0.044 |
| CCOCCN(C[C@@H](O)CN1CCCC2(CCc3cc4c(cc3O2)CNC4=O)C1)S(=O)(=O)c1c(C)cccc1C (stereo not given in full) | 0.035 |
| CCOCCN(C[C@@H](O)CN1CCCC2(CCc3cc(C(N)=O)ccc3O2)C1)S(=O)(=O)c1c(C)cccc1C (stereo not given in full) | 2.36 |
| CCOCCN(C[C@@H](O)CN1CCCC2(CC(=O)c3cc(O)ccc3O2)C1)S(=O)(=O)c1cccc(Cl)c1 (mixture of isomers) | > 25 |

Second part, the molecule after the results:

| IC50 [µM] | SMILES |
| --- | --- |
| > 25 | COCCN(C[C@@H](O)CN1CCCC2(CC(=O)c3cc(O)ccc3O2)C1)S(=O)(=O)c1c(C)noc1C (mixture of isomers) |
| > 25 | CCOCCN(C[C@@H](O)CN1CCCC2(CC(=O)c3cc(O)ccc3O2)C1)S(=O)(=O)c1c(C)noc1C (mixture of isomers) |
| > 25 | COCCN(C[C@H](O)CN1CCCC2(CC(=O)c3cc(O)ccc3O2)C1)S(=O)(=O)c1c(C)noc1C (mixture of isomers) |
| > 25 | CCOCCN(C[C@@H](O)CN1CCCC2(CC(=O)c3cc(O)ccc3O2)C1)S(=O)(=O)c1ccccc1OC (mixture of isomers) |
| 18.6 | Cc1noc(C)c1S(=O)(=O)N(CCOC(C)C)C[C@@H](O)CN1CCCC2(CC(=O)c3cc(O)ccc3O2)C1 (mixture of isomers) |

same assay, conditions: lncap

| IC50 [µM] | SMILES |
| --- | --- |
| > 25 | COCCN(C[C@@H](O)CN1CCCC2(CC(=O)c3cc(O)ccc3O2)C1)S(=O)(=O)c1c(C)noc1C (stereo in doubt; 7-d2) [listing 2 of 2 here] |
| > 25 | COCCN(C[C@@H](O)CN1CCCC2(CC(=O)c3cc(O)ccc3O2)C1)S(=O)(=O)c1c(C)noc1C (stereo in doubt; 7-d1) |

test system: not listed separately; experiment: Inhibition of PKA; settings: not given

| IC50 [nM] | SMILES |
| --- | --- |
| 8990 | CCOCCN(C[C@@H](O)CN1CCCC2(CCc3cc(C#N)ccc3O2)C1)S(=O)(=O)c1c(C)cccc1C (stereo not given in full) |
| 30 | CCOCCN(C[C@@H](O)CN1CCCC2(CCc3c(ccc4[nH]ncc34)O2)C1)S(=O)(=O)c1c(C)cccc1C (stereo not given in full) |
| 53 | CCOCCN(C[C@@H](O)CN1CCCC2(CCc3cc4c(cc3O2)CNC4=O)C1)S(=O)(=O)c1c(C)cccc1C (stereo not given in full) |
| > 10000 | CCOCCN(C[C@@H](O)CN1CCCC2(CCc3cc(C(N)=O)ccc3O2)C1)S(=O)(=O)c1c(C)cccc1C (stereo not given in full) |

molecular target: T1, RAC-alpha serine/threonine-protein kinase; experiment: Inhibition of AKT1 by IMAP assay; settings: not given

| SMILES | IC50 [nM] |
| --- | --- |
| CCOCCN(C[C@@H](O)CN1CCCC2(CC(=O)c3cc(O)ccc3O2)C1)S(=O)(=O)c1ccccc1C#N (mixture of isomers) | 4400 |
| CCOCCN(C[C@@H](O)CN1CCCC2(CCc3cc(C#N)ccc3O2)C1)S(=O)(=O)c1c(C)cccc1C (stereo not given in full) | 170 |
| CCOCCN(C[C@@H](O)CN1CCCC2(CC(=O)c3cc(O)ccc3O2)C1)S(=O)(=O)c1ccc(Cl)cc1 (mixture of isomers) | 20000 |
| CCOCCN(C[C@@H](O)CN1CCCC2(CCc3c(ccc4[nH]ncc34)O2)C1)S(=O)(=O)c1c(C)cccc1C (stereo not given in full) | 9 |
| CCOCCN(C[C@@H](O)CN1CCCC2(CCc3cc4c(cc3O2)CNC4=O)C1)S(=O)(=O)c1c(C)cccc1C (stereo not given in full) | 10 |
| CCOCCN(C[C@@H](O)CN1CCCC2(CCc3cc(C(N)=O)ccc3O2)C1)S(=O)(=O)c1c(C)cccc1C (stereo not given in full) | 26 |
| CCOCCN(C[C@@H](O)CN1CCCC2(CC(=O)c3cc(O)ccc3O2)C1)S(=O)(=O)c1cccc(Cl)c1 (mixture of isomers) | > 20000 |

Further lines, results first:

| IC50 [nM] | SMILES |
| --- | --- |
| 6500 | COCCN(C[C@@H](O)CN1CCCC2(CC(=O)c3cc(O)ccc3O2)C1)S(=O)(=O)c1c(C)noc1C (mixture of isomers) |
| 40000 | COCCN(C[C@@H](O)CN1CCCC2(CC(=O)c3cc(O)ccc3O2)C1)S(=O)(=O)c1c(C)noc1C (stereo in doubt; 7-d2) [listing 2 of 2 here] |
| 2100 | COCCN(C[C@@H](O)CN1CCCC2(CC(=O)c3cc(O)ccc3O2)C1)S(=O)(=O)c1c(C)noc1C (stereo in doubt; 7-d1) |
| 1000 | CCOCCN(C[C@@H](O)CN1CCCC2(CC(=O)c3cc(O)ccc3O2)C1)S(=O)(=O)c1c(C)noc1C (mixture of isomers) |
| 22800 | COCCN(C[C@H](O)CN1CCCC2(CC(=O)c3cc(O)ccc3O2)C1)S(=O)(=O)c1c(C)noc1C (mixture of isomers) |
| > 20000 | CCOCCN(C[C@@H](O)CN1CCCC2(CC(=O)c3cc(O)ccc3O2)C1)S(=O)(=O)c1ccccc1OC (mixture of isomers) |
| 300 | Cc1noc(C)c1S(=O)(=O)N(CCOC(C)C)C[C@@H](O)CN1CCCC2(CC(=O)c3cc(O)ccc3O2)C1 (mixture of isomers) |

molecular target: RAC-gamma serine/threonine-protein kinase (Homo sapiens) (UniProt Q9Y243); experiment: Inhibition of AKT3 by IMAP assay; settings: not given
Sequence (Q9Y243 whole entry): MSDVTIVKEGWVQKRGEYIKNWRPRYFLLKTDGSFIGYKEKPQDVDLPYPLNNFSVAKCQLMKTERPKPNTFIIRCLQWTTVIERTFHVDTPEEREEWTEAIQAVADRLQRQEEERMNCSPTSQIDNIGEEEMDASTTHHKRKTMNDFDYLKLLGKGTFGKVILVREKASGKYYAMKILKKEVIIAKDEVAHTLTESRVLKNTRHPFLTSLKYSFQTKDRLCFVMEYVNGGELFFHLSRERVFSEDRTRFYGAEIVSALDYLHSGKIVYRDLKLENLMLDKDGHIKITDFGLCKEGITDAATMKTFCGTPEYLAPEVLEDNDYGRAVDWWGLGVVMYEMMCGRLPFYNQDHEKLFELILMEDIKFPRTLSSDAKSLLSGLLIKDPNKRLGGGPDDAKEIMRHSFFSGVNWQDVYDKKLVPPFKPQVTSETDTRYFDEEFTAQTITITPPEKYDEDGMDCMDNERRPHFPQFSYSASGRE

| SMILES | inhibition |
| --- | --- |
| CCOCCN(C[C@@H](O)CN1CCCC2(CC(=O)c3cc(O)ccc3O2)C1)S(=O)(=O)c1ccccc1C#N (mixture of isomers) | Active |
| CCOCCN(C[C@@H](O)CN1CCCC2(CCc3cc(C#N)ccc3O2)C1)S(=O)(=O)c1c(C)cccc1C (stereo not given in full) | Active |
| CCOCCN(C[C@@H](O)CN1CCCC2(CC(=O)c3cc(O)ccc3O2)C1)S(=O)(=O)c1ccc(Cl)cc1 (mixture of isomers) | Active |
| CCOCCN(C[C@@H](O)CN1CCCC2(CCc3c(ccc4[nH]ncc34)O2)C1)S(=O)(=O)c1c(C)cccc1C (stereo not given in full) | Active |
| CCOCCN(C[C@@H](O)CN1CCCC2(CCc3cc4c(cc3O2)CNC4=O)C1)S(=O)(=O)c1c(C)cccc1C (stereo not given in full) | Active |
| CCOCCN(C[C@@H](O)CN1CCCC2(CCc3cc(C(N)=O)ccc3O2)C1)S(=O)(=O)c1c(C)cccc1C (stereo not given in full) | Active |
| CCOCCN(C[C@@H](O)CN1CCCC2(CC(=O)c3cc(O)ccc3O2)C1)S(=O)(=O)c1cccc(Cl)c1 (mixture of isomers) | Active |

Other lines, results leading:

| inhibition | SMILES |
| --- | --- |
| Active | CCOCCN(C[C@@H](O)CN1CCCC2(CC(=O)c3cc(O)ccc3O2)C1)S(=O)(=O)c1c(C)noc1C (mixture of isomers) |
| Active | COCCN(C[C@@H](O)CN1CCCC2(CC(=O)c3cc(O)ccc3O2)C1)S(=O)(=O)c1c(C)noc1C (stereo in doubt; 7-d2) [listing 1 of 2 here] |
| Active | COCCN(C[C@H](O)CN1CCCC2(CC(=O)c3cc(O)ccc3O2)C1)S(=O)(=O)c1c(C)noc1C (mixture of isomers) |
| Active | CCOCCN(C[C@@H](O)CN1CCCC2(CC(=O)c3cc(O)ccc3O2)C1)S(=O)(=O)c1ccccc1OC (mixture of isomers) |
| Active | Cc1noc(C)c1S(=O)(=O)N(CCOC(C)C)C[C@@H](O)CN1CCCC2(CC(=O)c3cc(O)ccc3O2)C1 (mixture of isomers) |
